Results published in patent publication US20240034731A1, “AZA-QUINAZOLINE COMPOUNDS AND METHODS OF USE” (Iambic Therapeutics, Inc., priority 2022, published 2024).
pIC50: −log10 of the molar value.

Key:
CDK4/Cyclin D1 = CDK4/Cyclin D1 (Homo sapiens (Human), UniProt P11802); assay: CDK4/Cyclin D1 Mobility Shift Assay (MSA); assay type: biochemical; conditions: 0.2 mM ATP, read-out: CDK4/ CyclinD1 MSA IC50
Description: CDK4/Cyclin D1 Mobility Shift Assay (MSA)
The purpose CDK4/Cyclin D1 assay is to evaluate the inhibition (% inhibition and IC50 values) in the presence of small molecule inhibitors by using a fluorescence based microfluidic mobility shift assay. CDK4/Cyclin D1 catalyzes the production of ADP from ATP that accompanies the phosphoryl transfer to the substrate peptide 5-FAM-Dyrktide (5-FAM-[…]) (Perkin Elmer Peptide 34). The mobility shift assay (MSA) electrophoretically separates the fluorescently labelled peptides (substrate and phosphorylated product) following the kinase reaction. Both substrate and product are measured, and the ratio of these values is used to generate % conversion of substrate to product by the LabChip EZ Reader. Typical reaction solutions contained 2% DMSO (+/− inhibitor), 10 mM MgCl2, 1 mM EGTA, 0.05% BSA, 2 mM DTT, 0.2 mM ATP, 0.01% Brig-35, 1.5 uM 5-FAM-Dyrktide, 2.5 nM CDK4/Cyclin D1 in 50 mM HEPES buffer at pH 7.5. The reaction was initiated with the addition of substrate solution, following a 30-minute pre-incubation of enzyme and inhibitor at 22° C. in the reaction mix. The reaction was stopped after 180 minutes by the addition of 75 uL of 500 mM EDTA and measured on a Perkin Elmer EZ reader instrument. IC50 determinations were made from a plot of the fractional velocity as a function of inhibitor concentration fit to the 4 parameters IC50 equation.

CDK6/Cyclin D3 = CDK6/Cyclin D3 (Homo sapiens (Human), UniProt Q00534); assay: CDK6/Cyclin D3 ADP-Glo Kinase Assay; assay type: biochemical; conditions: 100 uM ATP, read-out: CDK6/ CyclinD3 IC50
Method in brief: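 ADP-Glo luminescence measured ADP produced by CDK6/Cyclin D3 in a 90-min room-temperature reaction started with ATP-containing substrate, after 30-min enzyme–inhibitor pre-incubation. Fractional velocity was plotted against inhibitor concentration and fitted to a four-parameter IC50 model.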

MCF-7 cells = assay: Cell Growth Inhibition, MCF-7 (CellTiterGlo, 6 days); assay type: cell-based; conditions: Homo sapiens, MCF7, 144 h, MCF-7, 6-day treatment
Method in brief: (§1)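 IC50 from four-parameter, variable-slope fits of % growth inhibition, derived from CellTiterGlo 2.0 luminescence relative to control. Compounds, usually 10-10,000 nM in half-log steps, stayed 6 days at 37 °C, 5% CO2 with 500 MCF-7 or OVCAR-3 cells/well in 10% FBS RPMI.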

OVCAR-3 cells = assay: Cell Growth Inhibition, OVCAR-3 (CellTiterGlo, 6 days); assay type: cell-based; conditions: Homo sapiens, 144 h, OVCAR-3, 6-day treatment
Method in brief: as §1

CDK1/Cyclin B1 = CDK1/Cyclin B1 (Homo sapiens (Human), UniProt P06493); assay: CDK1/Cyclin B1 ADP-Glo Kinase Assay; assay type: biochemical; conditions: ADP-Glo, 80 uM ATP; read-out: CDK1 Cyclin B1 IC50
Method in brief: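 ADP-Glo luminescent readout of ADP production, with IC50 fitted by a four-parameter equation to fractional velocity against inhibitor concentration. Reaction started with ATP-containing substrate after a 30-minute enzyme–inhibitor pre-incubation and stopped after 90 minutes, both at room temperature.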

CDK2/Cyclin E1 = CDK2/Cyclin E1 (Homo sapiens (Human), UniProt P24941); assay: CDK2/Cyclin E1 Full length ADP-Glo Kinase Assay; assay type: biochemical; conditions: 20 uM ATP, read-out: CDK2/ CyclinE1 IC50
Method in brief: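 ADP-Glo luminescence (ATP depletion, then ADP-to-light conversion) quantified kinase turnover after a 90 min room-temperature reaction started by ATP/substrate, following 30 min enzyme–inhibitor preincubation. Enzyme: full-length CDK2/cyclin E1; IC50 fitted with a four-parameter equation on fractional velocity.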

Chain of CDK6/Cyclin D3 (Q00534 whole entry): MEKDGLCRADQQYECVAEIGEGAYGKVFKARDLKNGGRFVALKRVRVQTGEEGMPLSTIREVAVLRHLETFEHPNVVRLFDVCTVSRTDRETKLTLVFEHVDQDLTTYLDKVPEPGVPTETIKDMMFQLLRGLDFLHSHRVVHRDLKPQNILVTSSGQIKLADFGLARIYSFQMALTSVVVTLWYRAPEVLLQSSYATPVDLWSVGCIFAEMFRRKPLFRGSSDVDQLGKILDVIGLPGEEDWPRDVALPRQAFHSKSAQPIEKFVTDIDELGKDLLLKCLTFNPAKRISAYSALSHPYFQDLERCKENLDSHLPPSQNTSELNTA
Chain of CDK6/Cyclin D3 (P30281 whole entry partner): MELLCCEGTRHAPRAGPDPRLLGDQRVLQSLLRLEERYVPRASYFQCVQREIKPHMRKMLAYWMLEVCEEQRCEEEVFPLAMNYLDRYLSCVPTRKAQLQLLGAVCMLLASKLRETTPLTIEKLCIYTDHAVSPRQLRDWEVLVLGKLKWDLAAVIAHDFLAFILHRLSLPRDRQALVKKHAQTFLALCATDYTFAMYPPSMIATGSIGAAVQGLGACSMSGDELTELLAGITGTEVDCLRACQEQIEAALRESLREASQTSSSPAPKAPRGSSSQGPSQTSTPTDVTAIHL
Chain of CDK4/Cyclin D1 (P11802 whole entry): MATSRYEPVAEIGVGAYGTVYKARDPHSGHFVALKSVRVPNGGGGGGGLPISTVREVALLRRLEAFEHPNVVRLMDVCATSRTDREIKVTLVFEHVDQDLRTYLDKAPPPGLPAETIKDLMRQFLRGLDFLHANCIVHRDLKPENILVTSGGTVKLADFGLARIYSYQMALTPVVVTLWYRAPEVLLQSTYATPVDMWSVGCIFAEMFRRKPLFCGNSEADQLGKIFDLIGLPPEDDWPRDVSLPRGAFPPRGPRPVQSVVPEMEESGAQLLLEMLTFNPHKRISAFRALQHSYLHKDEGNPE
Chain of CDK4/Cyclin D1 (P24385 whole entry partner): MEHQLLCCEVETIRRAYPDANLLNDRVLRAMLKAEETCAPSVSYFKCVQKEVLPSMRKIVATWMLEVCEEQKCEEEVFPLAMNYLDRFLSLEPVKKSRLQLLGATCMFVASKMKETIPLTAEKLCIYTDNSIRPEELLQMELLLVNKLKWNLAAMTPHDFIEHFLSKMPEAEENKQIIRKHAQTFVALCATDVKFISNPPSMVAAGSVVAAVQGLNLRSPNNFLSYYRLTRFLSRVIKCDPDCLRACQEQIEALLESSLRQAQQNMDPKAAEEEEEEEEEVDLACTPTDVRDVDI
Chain of CDK1/Cyclin B1 (P06493 whole entry): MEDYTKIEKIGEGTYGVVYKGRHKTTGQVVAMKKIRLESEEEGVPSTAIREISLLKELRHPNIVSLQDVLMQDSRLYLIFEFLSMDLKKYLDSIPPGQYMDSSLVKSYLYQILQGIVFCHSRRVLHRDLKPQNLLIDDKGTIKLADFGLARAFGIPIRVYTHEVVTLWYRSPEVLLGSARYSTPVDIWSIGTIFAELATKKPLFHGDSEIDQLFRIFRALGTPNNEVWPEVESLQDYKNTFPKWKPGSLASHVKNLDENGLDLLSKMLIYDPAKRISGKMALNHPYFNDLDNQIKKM
Chain of CDK1/Cyclin B1 (P14635 whole entry partner): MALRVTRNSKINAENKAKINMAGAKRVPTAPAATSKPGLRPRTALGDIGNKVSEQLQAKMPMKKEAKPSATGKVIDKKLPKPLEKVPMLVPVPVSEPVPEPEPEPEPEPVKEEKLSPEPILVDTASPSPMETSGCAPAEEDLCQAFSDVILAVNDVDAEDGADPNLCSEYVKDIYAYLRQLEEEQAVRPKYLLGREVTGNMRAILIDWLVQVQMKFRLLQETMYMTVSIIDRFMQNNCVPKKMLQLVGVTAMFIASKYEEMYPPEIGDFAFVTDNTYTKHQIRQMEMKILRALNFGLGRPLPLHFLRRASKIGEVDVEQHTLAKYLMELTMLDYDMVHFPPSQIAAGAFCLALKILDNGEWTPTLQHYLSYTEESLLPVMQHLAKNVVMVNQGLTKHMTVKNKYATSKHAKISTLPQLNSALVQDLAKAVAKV

pIC50 (CDK4/Cyclin D1)	pIC50 (CDK6/Cyclin D3)	pIC50 (MCF-7 cells)	pIC50 (OVCAR-3 cells)	pIC50 (CDK1/Cyclin B1)	pIC50 (CDK2/Cyclin E1)	SMILES
> 6.70	6.30 to 6.70	5.70 to 6.30	< 5.70	5.70 to 6.30	> 6.70	CS(=O)(=O)N1CCC(Nc2ncc3ccnc(N4CCN(C5CC5)CC4)c3n2)CC1 [Compound 1, 8-(4-cyclopropylpiperazin-1-yl)-N-(1-(methylsulfonyl)piperidin-4-yl)pyrido[3,4-d]pyrimidin-2-amine]
> 6.70	> 6.70	5.70 to 6.30	> 6.70	> 6.70	> 6.70	CS(=O)(=O)N1CCC(Nc2ncc3ccnc(N4CCC5(C4)CC5(F)F)c3n2)CC1 (centres unmarked) [Compound 3, 8-(1,1-difluoro-5-azaspiro[2.4]heptan-5-yl)-N-(1-(methylsulfonyl)piperidin-4-yl)pyrido[3,4-d]pyrimidin-2-amine]
> 6.70	–	5.70 to 6.30	5.70 to 6.30	6.30 to 6.70	–	CN1CCN(c2ccc(Nc3ncc4ccnc(N5CCC6(CCN(S(C)(=O)=O)C6)C5)c4n3)cc2)CC1 (centres unmarked) [Compound 9, N-(4-(4-methylpiperazin-1-yl)phenyl)-8-(7-(methylsulfonyl)-2,7-diazaspiro[4.4]nonan-2-yl)pyrido[3,4-d]pyrimidin-2-amine]
> 6.70	> 6.70	5.70 to 6.30	5.70 to 6.30	< 5.70	> 6.70	CN1CCn2nc(Nc3ncc4ccnc(N5CCC6(C5)CC6(F)F)c4n3)cc2C1 (centres unmarked) [Compound 10, 8-(1,1-difluoro-5-azaspiro[2.4]heptan-5-yl)-N-(5-methyl-4,5,6,7-tetrahydropyrazolo[1,5-a]pyrazin-2-yl)pyrido[3,4-d]pyrimidin-2-amine]
> 6.70	6.30 to 6.70	5.70 to 6.30	5.70 to 6.30	< 5.70	6.30 to 6.70	CN1C[C@@H]2[C@H](C1)[C@H]2Nc1ncc2ccnc(N3CCC4(C3)CC4(F)F)c2n1 (stereo partly drawn) [Compound 17, 8-(1,1-difluoro-5-azaspiro[2.4]heptan-5-yl)-N-((1R,5S,6s)-3-methyl-3-azabicyclo[3.1.0]hexan-6-yl)pyrido[3,4-d]pyrimidin-2-amine]
> 6.70	> 6.70	6.30 to 6.70	< 5.70	< 5.70	5.70 to 6.30	CCN1CC2(C1)CN(c1ccc(Nc3ncc4ccnc(N5CCC6(CCOCC6)C5)c4n3)nc1)C2 [Compound 18, N-(5-(6-ethyl-2,6-diazaspiro[3.3]heptan-2-yl)pyridin-2-yl)-8-(8-oxa-2-azaspiro[4.5]decan-2-yl)pyrido[3,4-d]pyrimidin-2-amine]
> 6.70	> 6.70	6.30 to 6.70	6.30 to 6.70	> 6.70	> 6.70	CN1Cc2ccc(Nc3ncc4ccnc(N5CCC6(C5)CC6(F)F)c4n3)cc2C1 (centres unmarked) [Compound 22, 8-(1,1-difluoro-5-azaspiro[2.4]heptan-5-yl)-N-(2-methylisoindolin-5-yl)pyrido[3,4-d]pyrimidin-2-amine]
> 6.70	> 6.70	5.70 to 6.30	5.70 to 6.30	> 6.70	> 6.70	CS(=O)(=O)N1CCC(Nc2ncc3ccnc(N4CCC5(C4)CC(F)(F)C5)c3n2)CC1 [Example 2, 8-(2,2-difluoro-6-azaspiro[3.4]octan-6-yl)-N-(1-(methylsulfonyl)piperidin-4-yl)pyrido[3,4-d]pyrimidin-2-amine]

More lines, now with the values behind:

SMILES	pIC50 (CDK4/Cyclin D1)	pIC50 (CDK6/Cyclin D3)	pIC50 (MCF-7 cells)	pIC50 (OVCAR-3 cells)	pIC50 (CDK1/Cyclin B1)	pIC50 (CDK2/Cyclin E1)
CN1CCN(c2ccc(Nc3ncc4ccnc(N5CCC6(C5)CC(F)(F)C6)c4n3)cc2)CC1 [Compound 4, 8-(2,2-difluoro-6-azaspiro[3.4]octan-6-yl)-N-(4-(4-methylpiperazin-1-yl)phenyl)pyrido[3,4-d]pyrimidin-2-amine]	> 6.70	> 6.70	6.30 to 6.70	5.70 to 6.30	6.30 to 6.70	> 6.70
CS(=O)(=O)N1CCC(Nc2ncc3ccnc(N4CCC(C#N)(C5CC5)C4)c3n2)CC1 (centres unmarked) [Compound 5, 3-cyclopropyl-1-(2-((1-(methylsulfonyl)piperidin-4-yl)amino)pyrido[3,4-d]pyrimidin-8-yl)pyrrolidine-3-carbonitrile]	> 6.70	> 6.70	5.70 to 6.30	5.70 to 6.30	> 6.70	> 6.70
CS(=O)(=O)N1CCC(Nc2ncc3ccnc(N4CCC5(CCOCC5)C4)c3n2)CC1 [Compound 7, N-(1-(methylsulfonyl)piperidin-4-yl)-8-(8-oxa-2-azaspiro[4.5]decan-2-yl)pyrido[3,4-d]pyrimidin-2-amine]	> 6.70	> 6.70	5.70 to 6.30	5.70 to 6.30	6.30 to 6.70	> 6.70
CS(=O)(=O)N1CCC(Nc2ncc3ccnc(N4CC5(C4)CN(C4CC4)C5)c3n2)CC1 [Compound 8, 8-(6-cyclopropyl-2,6-diazaspiro[3.3]heptan-2-yl)-N-(1-(methylsulfonyl)piperidin-4-yl)pyrido[3,4-d]pyrimidin-2-amine]	> 6.70	–	5.70 to 6.30	> 6.70	6.30 to 6.70	–
CS(=O)(=O)N1CC(Nc2ncc3ccnc(N4CCC5(C4)CC5(F)F)c3n2)C1 (centres unmarked) [Compound 14, 8-(1,1-difluoro-5-azaspiro[2.4]heptan-5-yl)-N-(1-(methylsulfonyl)azetidin-3-yl)pyrido[3,4-d]pyrimidin-2-amine]	> 6.70	> 6.70	< 5.70	< 5.70	6.30 to 6.70	> 6.70
CN1C[C@@H]2[C@H](C1)[C@H]2Nc1ncc2ccnc(N3CCC4(CCN(S(C)(=O)=O)C4)C3)c2n1 (stereo partly drawn) [Compound 15, N-((1R,5S,6s)-3-methyl-3-azabicyclo[3.1.0]hexan-6-yl)-8-(7-(methylsulfonyl)-2,7-diazaspiro[4.4]nonan-2-yl)pyrido[3,4-d]pyrimidin-2-amine]	5.70 to 6.30	< 5.70	< 5.70	< 5.70	< 5.70	5.70 to 6.30
CS(=O)(=O)N1CCC(Nc2ncc3ccnc(N4CC5(CCCC5)c5c(F)cccc54)c3n2)CC1 [Compound 19, 8-(4′-fluorospiro[cyclopentane-1,3′-indolin]-1′-yl)-N-(1-(methylsulfonyl)piperidin-4-yl)pyrido[3,4-d]pyrimidin-2-amine]	5.70 to 6.30	< 5.70	< 5.70	< 5.70	< 5.70	> 6.70
CN1CCC(n2cc(Nc3ncc4ccnc(N5CCC6(C5)CC6(F)F)c4n3)cn2)CC1 (centres unmarked) [Compound 20, 8-(1,1-difluoro-5-azaspiro[2.4]heptan-5-yl)-N-(1-(1-methylpiperidin-4-yl)-1H-pyrazol-4-yl)pyrido[3,4-d]pyrimidin-2-amine]	> 6.70	> 6.70	5.70 to 6.30	6.30 to 6.70	5.70 to 6.30	> 6.70
CCN1CC2(C1)CN(c1ccc(Nc3ncc4ccnc(N5CCC6(C5)CC(F)(F)C6)c4n3)nc1)C2 [Example 6, 8-(2,2-difluoro-6-azaspiro[3.4]octan-6-yl)-N-(5-(6-ethyl-2,6-diazaspiro[3.3]heptan-2-yl)pyridin-2-yl)pyrido[3,4-d]pyrimidin-2-amine]	> 6.70	> 6.70	5.70 to 6.30	< 5.70	< 5.70	5.70 to 6.30
